Results taken from ChEMBL document CHEMBL5696442, “Discovery of type II inhibitors of TGFβ-activated kinase 1 (TAK1) and mitogen-activated protein kinase kinase kinase kinase 2 (MAP4K2)” (J Med Chem, 2015).
Active and inactive are the calls of the source. The rule behind the calls is not given here.

How the values were obtained:
[1] = molecular target: T1, Inhibitor of nuclear factor kappa-B kinase subunit epsilon (Homo sapiens) (UniProt Q14164); test: Inhibition of IKK-epsilon (unknown origin) at 10 uM by Ambit Kinomescan binding assay
T1 sequence (whole entry): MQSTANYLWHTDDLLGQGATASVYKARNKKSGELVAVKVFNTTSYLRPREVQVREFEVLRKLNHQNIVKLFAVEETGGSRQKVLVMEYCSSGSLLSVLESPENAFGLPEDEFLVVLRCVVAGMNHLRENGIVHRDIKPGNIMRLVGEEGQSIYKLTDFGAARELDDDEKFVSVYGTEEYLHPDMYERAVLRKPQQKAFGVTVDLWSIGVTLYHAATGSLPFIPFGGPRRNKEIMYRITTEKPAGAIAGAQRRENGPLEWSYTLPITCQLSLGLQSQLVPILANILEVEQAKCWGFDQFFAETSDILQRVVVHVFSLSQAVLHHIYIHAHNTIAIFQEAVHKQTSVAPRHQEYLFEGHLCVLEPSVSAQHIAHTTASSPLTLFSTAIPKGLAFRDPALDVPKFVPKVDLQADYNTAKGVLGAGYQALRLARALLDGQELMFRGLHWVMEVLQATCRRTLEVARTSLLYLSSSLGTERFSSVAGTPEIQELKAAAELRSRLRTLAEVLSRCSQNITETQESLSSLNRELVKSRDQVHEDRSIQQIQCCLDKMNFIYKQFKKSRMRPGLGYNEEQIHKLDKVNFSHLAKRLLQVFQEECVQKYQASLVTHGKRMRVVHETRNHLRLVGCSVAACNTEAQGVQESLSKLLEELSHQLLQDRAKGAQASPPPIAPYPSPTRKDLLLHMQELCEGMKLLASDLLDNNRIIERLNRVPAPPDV

[2] = test system: Phosphatidylinositol 4,5-bisphosphate 3-kinase catalytic subunit alpha isoform (Homo sapiens), P42336 [E545K]; test: Inhibition of PIK3CA E545K mutant (unknown origin) at 10 uM by Ambit Kinomescan binding assay
Phosphatidylinositol 4,5-bisphosphate 3-kinase catalytic subunit alpha isoform (Homo sapiens), P42336 [E545K], sequence (P42336 whole entry E545K, canonical isoform): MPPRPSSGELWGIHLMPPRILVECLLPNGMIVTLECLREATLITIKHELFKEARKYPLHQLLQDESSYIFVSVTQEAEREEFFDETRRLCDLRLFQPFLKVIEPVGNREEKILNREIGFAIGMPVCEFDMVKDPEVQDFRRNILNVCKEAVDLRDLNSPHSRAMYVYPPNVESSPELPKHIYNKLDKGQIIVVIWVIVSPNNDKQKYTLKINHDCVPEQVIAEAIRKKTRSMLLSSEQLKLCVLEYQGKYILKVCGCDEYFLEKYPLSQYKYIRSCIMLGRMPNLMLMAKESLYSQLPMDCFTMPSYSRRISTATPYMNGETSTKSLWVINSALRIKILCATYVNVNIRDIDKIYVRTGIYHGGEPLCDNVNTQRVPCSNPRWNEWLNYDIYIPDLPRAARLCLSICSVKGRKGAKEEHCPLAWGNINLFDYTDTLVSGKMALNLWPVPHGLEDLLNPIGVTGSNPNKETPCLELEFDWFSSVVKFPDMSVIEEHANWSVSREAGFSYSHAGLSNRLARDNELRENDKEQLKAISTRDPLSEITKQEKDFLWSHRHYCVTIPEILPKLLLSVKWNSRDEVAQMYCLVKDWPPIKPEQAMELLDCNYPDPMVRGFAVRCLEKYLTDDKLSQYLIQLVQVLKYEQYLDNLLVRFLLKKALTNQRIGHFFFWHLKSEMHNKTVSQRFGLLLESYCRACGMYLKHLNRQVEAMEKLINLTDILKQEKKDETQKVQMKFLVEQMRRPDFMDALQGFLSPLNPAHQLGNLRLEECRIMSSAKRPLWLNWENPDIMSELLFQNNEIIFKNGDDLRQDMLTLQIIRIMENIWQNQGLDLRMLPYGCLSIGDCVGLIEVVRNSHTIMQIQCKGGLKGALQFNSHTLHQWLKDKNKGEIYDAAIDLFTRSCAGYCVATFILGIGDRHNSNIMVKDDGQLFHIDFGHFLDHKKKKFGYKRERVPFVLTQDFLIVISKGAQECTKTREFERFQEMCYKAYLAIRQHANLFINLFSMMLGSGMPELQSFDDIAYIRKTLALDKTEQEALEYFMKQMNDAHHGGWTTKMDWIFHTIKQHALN

[3] = molecular target: Serine/threonine-protein kinase BRSK1 (Homo sapiens) (UniProt Q8TDC3); test: Inhibition of BRSK1 (unknown origin) at 10 uM by Ambit Kinomescan binding assay
[4] = molecular target: AMPK alpha1/alpha2 (Homo sapiens) (UniProt P54646+Q13131); test: Inhibition of AMPK alpha 1/2 K1 labeling site in human Huh-7 cells at 1 uM by KiNativ Profiling analysis relative to control; assay type: cell-based
[5] = molecular target: T2, Eukaryotic elongation factor 2 kinase (Homo sapiens) (UniProt O00418); test: Inhibition of eEF2K ATP labeling site harbouring YIKYNSNSGFVRDDNIR in human A-375 cells at 0.5 uM by KiNativ Profiling analysis relative to control; assay type: cell-based
T2 sequence (whole entry): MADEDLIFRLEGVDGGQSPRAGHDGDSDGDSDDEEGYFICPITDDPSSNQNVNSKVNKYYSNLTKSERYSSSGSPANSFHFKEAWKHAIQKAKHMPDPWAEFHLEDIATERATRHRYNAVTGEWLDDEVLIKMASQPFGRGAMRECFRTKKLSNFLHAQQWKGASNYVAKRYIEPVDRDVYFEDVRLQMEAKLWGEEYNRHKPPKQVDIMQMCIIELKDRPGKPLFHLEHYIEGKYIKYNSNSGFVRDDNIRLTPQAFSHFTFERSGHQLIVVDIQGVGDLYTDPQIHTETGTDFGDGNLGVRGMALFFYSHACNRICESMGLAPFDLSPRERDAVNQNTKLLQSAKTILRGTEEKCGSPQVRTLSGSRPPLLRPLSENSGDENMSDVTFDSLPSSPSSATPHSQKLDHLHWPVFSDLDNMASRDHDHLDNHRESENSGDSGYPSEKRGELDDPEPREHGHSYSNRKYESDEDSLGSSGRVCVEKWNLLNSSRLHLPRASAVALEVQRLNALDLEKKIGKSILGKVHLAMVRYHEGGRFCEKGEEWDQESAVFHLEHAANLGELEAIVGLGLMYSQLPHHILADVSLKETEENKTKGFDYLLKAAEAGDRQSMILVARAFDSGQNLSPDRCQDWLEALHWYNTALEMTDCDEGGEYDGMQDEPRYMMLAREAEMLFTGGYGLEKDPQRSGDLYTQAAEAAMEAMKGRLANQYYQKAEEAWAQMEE

[6] = molecular target: Protein-tyrosine kinase 2-beta (Homo sapiens) (UniProt Q14289); test: Inhibition of PYK2 (unknown origin) at 10 uM by Ambit Kinomescan binding assay relative to control; values are per cent of control
Protein-tyrosine kinase 2-beta (Homo sapiens), sequence (Q14289 whole entry, looked up): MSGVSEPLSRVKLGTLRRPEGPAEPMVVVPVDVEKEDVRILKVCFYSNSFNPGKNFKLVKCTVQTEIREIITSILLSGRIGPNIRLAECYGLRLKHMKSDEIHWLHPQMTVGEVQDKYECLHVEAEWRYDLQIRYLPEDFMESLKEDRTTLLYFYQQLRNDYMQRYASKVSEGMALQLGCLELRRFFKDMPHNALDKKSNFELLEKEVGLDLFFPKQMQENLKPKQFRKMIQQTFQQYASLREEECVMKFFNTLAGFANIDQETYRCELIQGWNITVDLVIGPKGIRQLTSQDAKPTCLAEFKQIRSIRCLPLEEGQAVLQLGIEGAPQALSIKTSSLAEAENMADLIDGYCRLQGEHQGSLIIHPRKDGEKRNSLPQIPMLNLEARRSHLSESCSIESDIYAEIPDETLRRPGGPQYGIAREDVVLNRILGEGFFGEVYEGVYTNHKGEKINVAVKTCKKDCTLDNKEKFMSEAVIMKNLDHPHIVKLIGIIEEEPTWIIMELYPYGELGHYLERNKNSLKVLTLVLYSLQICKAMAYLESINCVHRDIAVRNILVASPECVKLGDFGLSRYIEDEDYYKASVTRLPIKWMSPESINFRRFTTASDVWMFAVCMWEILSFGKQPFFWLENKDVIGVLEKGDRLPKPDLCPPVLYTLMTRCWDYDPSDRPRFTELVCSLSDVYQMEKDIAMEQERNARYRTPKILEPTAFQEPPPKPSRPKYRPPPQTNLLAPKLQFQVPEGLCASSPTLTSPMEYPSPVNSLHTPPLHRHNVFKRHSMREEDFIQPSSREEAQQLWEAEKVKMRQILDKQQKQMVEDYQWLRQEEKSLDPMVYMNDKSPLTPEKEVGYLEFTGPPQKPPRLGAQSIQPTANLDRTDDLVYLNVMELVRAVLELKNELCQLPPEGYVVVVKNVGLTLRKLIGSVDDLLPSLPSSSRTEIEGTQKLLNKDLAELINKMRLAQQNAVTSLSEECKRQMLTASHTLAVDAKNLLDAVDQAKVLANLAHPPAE

[7] = molecular target: Cyclin-dependent kinase 20 (Homo sapiens) (UniProt Q8IZL9); test: Inhibition of CCRK Lys2 labeling site in human A-375 cells at 0.5 uM by KiNativ Profiling analysis relative to control; assay type: cell-based
Cyclin-dependent kinase 20 (Homo sapiens), sequence (Q8IZL9 whole entry): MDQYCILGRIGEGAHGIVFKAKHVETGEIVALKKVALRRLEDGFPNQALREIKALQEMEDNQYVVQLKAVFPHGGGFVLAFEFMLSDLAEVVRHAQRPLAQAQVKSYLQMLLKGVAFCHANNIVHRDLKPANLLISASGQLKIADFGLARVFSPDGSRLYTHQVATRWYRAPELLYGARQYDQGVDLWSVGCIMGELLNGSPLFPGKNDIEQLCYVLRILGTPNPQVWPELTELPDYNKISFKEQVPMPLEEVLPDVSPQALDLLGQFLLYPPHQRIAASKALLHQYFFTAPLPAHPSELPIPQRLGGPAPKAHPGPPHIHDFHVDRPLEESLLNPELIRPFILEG

[8] = molecular target: Myosin light chain kinase, smooth muscle (Homo sapiens) (UniProt Q15746); test: Inhibition of smMLCK Lys2 labeling site in human Huh-7 cell lysate at 1 uM by KiNativ Profiling analysis relative to control; assay type: subcellular
[9] = molecular target: Cyclin-dependent kinase 5 (Homo sapiens) (UniProt Q00535); test: Inhibition of CDK5 Lys2 labeling site harbouring NVLHRDLKPQNLLINR in human Huh-7 cell lysate at 1 uM by KiNativ Profiling analysis relative to control; assay type: subcellular
Cyclin-dependent kinase 5 (Homo sapiens), sequence (Q00535 whole entry, looked up, the tested form may be a part): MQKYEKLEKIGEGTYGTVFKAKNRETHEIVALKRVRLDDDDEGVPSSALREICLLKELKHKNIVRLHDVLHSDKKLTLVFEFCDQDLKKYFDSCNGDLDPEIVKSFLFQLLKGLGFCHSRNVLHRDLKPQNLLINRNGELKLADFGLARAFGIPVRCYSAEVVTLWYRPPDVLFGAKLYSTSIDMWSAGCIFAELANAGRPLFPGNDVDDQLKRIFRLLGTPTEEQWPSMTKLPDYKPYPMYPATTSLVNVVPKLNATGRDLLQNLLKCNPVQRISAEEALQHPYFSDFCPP

[10] = molecular target: T3, Scaffold protein ILK (Homo sapiens) (UniProt Q13418); test: Inhibition of ILK Protein Kinase Domain labeling site in human Huh-7 cell lysate at 1 uM by KiNativ Profiling analysis relative to control; assay type: subcellular
T3 sequence (whole entry): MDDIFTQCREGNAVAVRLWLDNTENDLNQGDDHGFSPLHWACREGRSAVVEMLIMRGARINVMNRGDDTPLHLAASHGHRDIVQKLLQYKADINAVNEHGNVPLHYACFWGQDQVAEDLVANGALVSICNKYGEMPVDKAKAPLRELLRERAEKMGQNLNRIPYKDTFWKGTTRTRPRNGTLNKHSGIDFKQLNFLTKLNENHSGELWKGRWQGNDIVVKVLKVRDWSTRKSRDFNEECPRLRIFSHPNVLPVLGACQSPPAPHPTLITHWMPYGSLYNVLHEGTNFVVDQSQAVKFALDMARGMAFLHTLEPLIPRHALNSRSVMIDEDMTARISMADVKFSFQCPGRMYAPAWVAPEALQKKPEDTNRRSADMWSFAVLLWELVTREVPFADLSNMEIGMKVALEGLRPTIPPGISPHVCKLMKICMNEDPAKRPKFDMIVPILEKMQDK

[11] = molecular target: Ephrin type-A receptor 3 (Homo sapiens) (UniProt P29320); test: Inhibition of EPHA3 (unknown origin) at 1 uM by Ambit Kinomescan binding assay relative to control; values are per cent of control
[12] = test system: Hepatocyte growth factor receptor (Homo sapiens), P08581 [M1250T]; test: Inhibition of MET M1250T mutant (unknown origin) at 1 uM by Ambit Kinomescan binding assay relative to control
Hepatocyte growth factor receptor (Homo sapiens), P08581 [M1250T], sequence (P08581 whole entry M1250T, the tested form may be a part): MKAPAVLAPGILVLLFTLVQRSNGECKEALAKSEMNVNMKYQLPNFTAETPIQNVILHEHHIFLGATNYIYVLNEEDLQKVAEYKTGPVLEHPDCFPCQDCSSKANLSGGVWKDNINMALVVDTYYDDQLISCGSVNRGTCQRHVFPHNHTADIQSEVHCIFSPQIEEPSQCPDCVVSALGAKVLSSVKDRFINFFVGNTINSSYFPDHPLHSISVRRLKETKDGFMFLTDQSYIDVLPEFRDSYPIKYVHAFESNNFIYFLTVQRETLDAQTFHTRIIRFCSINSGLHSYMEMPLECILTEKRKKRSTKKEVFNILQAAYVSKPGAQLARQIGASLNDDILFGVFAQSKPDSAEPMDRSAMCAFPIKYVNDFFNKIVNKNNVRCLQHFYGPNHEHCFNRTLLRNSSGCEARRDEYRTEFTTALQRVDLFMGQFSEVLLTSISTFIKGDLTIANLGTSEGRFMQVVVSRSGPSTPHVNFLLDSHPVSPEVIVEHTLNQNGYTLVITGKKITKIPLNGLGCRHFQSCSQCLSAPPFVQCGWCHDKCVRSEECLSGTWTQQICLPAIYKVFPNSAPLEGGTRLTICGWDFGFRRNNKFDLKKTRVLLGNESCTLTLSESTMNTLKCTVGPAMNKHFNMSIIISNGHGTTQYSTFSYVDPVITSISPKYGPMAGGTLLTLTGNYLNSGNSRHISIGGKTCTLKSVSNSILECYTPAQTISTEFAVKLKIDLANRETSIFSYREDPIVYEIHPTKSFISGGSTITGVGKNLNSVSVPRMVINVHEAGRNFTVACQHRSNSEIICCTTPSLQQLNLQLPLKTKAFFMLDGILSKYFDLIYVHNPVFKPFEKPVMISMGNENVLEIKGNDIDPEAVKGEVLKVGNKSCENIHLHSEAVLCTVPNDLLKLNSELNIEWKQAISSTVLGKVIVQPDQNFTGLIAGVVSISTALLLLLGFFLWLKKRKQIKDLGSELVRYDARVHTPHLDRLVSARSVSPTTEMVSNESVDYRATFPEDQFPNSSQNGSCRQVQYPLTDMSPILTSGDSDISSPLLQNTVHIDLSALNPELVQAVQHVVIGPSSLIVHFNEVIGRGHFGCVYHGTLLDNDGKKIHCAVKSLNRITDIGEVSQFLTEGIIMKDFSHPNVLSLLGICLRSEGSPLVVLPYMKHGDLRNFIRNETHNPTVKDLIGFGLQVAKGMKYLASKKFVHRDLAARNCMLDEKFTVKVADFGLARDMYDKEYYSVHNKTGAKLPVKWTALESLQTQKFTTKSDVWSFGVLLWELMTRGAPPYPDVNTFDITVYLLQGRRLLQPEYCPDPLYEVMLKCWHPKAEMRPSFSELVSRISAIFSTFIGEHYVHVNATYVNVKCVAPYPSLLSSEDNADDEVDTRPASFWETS

[13] = molecular target: LIM domain kinase 1 (Homo sapiens) (UniProt P53667); test: Inhibition of LIMK1 (unknown origin) at 1 uM by Ambit Kinomescan binding assay relative to control; values are per cent of control
LIM domain kinase 1 (Homo sapiens), sequence (P53667 whole entry, looked up, the tested form may be a part): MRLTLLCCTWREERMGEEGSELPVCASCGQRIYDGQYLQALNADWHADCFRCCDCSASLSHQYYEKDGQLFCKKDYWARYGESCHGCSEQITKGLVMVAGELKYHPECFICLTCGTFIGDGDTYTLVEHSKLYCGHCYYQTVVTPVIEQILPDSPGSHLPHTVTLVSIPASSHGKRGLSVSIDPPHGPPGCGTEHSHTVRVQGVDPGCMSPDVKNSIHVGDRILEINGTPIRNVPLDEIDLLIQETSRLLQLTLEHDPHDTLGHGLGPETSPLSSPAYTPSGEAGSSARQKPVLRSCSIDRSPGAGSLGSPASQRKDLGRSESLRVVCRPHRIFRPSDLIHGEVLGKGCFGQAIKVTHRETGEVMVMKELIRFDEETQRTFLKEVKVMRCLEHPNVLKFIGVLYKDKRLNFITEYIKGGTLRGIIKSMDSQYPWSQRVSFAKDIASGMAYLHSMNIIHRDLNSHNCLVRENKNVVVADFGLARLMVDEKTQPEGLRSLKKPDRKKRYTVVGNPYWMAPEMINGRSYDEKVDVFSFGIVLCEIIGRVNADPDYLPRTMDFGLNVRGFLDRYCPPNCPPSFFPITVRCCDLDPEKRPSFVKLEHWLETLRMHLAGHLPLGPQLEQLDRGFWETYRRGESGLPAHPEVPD

CCN1CCN(Cc2ccc(NC(=O)c3ccc(C)c(Oc4ccnc5[nH]ccc45)c3)cc2C(F)(F)F)CC1
inhibition [1]: inactive | inhibition [2]: inactive | inhibition [3]: inactive | inhibition [4]: 29.8% | inhibition [5]: 0.1% | residual activity [6]: 2.1% | inhibition [7]: -2.3%

CNc1cc(Oc2cc(C(=O)Nc3cc(N4CCN(C)CC4)cc(C(F)(F)F)c3)ccc2C)ncn1
inhibition [8]: -5.1% | inhibition [9]: 22.5% | inhibition [10]: -2.4%

CCN1CCN(Cc2ccc(NC(=O)c3ccc(C)c(/C=C/c4cnc5[nH]ccc5c4OC)c3)cc2C(F)(F)F)CC1
residual activity [11]: 5.7% | inhibition [12]: 74% | residual activity [13]: 25%
